The subject of data set [1] is Musca domestica. Description: Musca domestica test. The data set is classed as in vivo. The conditions noted are these: application rate 100 ppm; adult houseflies; kill after 2 days. How it is done: (§1) Solvent: dimethyl sulphoxide
To produce an appropriate active ingredient formulation, 10 mg of active ingredient are mixed with 0.5 ml of dimethyl sulphoxide, and the concentrate is diluted with water to the desired concentration.
Vessels containing a sponge treated with sugar solution and the active ingredient formulation of the desired concentration are populated with 10 adult houseflies (Musca domestica).
After 2 days, the kill in % is determined. 100% means that all of the flies have been killed; 0% means that none of the flies have been killed.

The test system of data set [2] is Ctenocephalides felis. Put plainly: Ctenocephalides felis - in vitro contact tests with adult cat fleas. The note with it: application rate 5 μg/cm^2 (=500 g/ha), after 48 h (dead or moribund). The data set is classed as in vivo. How it is done:
Ctenocephalides felis—In Vitro Contact Tests with Adult Cat Fleas
For the coating of the test tubes, 9 mg of active ingredient are first dissolved in 1 ml of acetone p.a. and then diluted to the desired concentration with acetone p.a. 250 μl of the solution are distributed homogeneously on the inner walls and base of a 25 ml test tube by turning and rocking on an orbital shaker (rocking rotation at 30 rpm for 2 h). With 900 ppm active ingredient solution and internal surface area 44.7 cm^2, given homogeneous distribution, an area-based dose of 5 μg/cm^2 is achieved.
After the solvent has evaporated off, the tubes are populated with 5-10 adult cat fleas (Ctenocephalides felis), sealed with a perforated plastic lid and incubated in a horizontal position at room temperature and ambient humidity. After 48 h, efficacy is determined. To this end, the test tubes are stood upright and the fleas are knocked to the base of the tube. Fleas which remain motionless at the base or move in an uncoordinated manner are considered to be dead or moribund.
100% efficacy means that all the fleas were dead or moribund. 0% efficacy means that no fleas were harmed.

In data set [3] the test system is Lucilia cuprina. Description: Lucilia cuprina test. It counts as in vivo. The conditions noted are these: application rate 100 ppm; L1 larvae in minced horsemeat; kill after 2 days. Put shortly:
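Mortality (%) of first-instar blowfly larvae, about 20 per vessel, recorded 2 days after exposure to compound-treated minced horsemeat. Compound dissolved in dimethyl sulphoxide, then water-diluted to the desired concentration.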

Data set [4] relates to Boophilus microplus Parkhurst strain, SP-resistant. Put plainly: Boophilus microplus - dip test. It counts as in vivo. The conditions noted are these: application rate 100 ppm; dip of engorged adult female ticks; laying of fertile eggs, after 7 days. As to the method: Boophilus microplus—Dip Test
Test animals: cattle ticks (Boophilus microplus) Parkhurst strain, SP-resistant
as §1
10 mg of active ingredient are dissolved in 0.5 ml of dimethyl sulphoxide. For the purpose of producing a suitable formulation, the active ingredient solution is diluted with water to the concentration desired in each case.
This active ingredient formulation is pipetted into tubes. 8-10 adult engorged female cattle ticks (Boophilus microplus) are transferred into a further tube with holes. The tube is immersed into the active ingredient formulation, and all the ticks are completely wetted. After the liquid has run out, the ticks are transferred on filter discs into plastic dishes and stored in a climate-controlled room.
Efficacy is assessed after 7 days by laying of fertile eggs. Eggs which are not visibly fertile are stored in a climate-controlled cabinet until the larvae hatch after about 42 days. An efficacy of 100% means that none of the ticks has laid any fertile eggs; 0% means that all the eggs are fertile.

Data set [5] is described as follows: logP determination by HPLC on a reversed-phase column (C18), EEC Directive 79/831 Annex V.A8. It counts as physicochemical. The conditions noted are these: for log P: HPLC-MS, reversed-phase column (C18); for logP^a): HPLC-MS method a), Table I-T3.
Data set [6] deals with Ctenocephalides felis. Description: Ctenocephalides felis - oral test. The data set is classed as in vivo. The conditions noted are these: application rate 100 ppm in citrated cattle blood; adult fleas; kill after 2 days. Put shortly:
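DMSO stock, diluted in citrated cattle blood; ~20 unfed adult fleas feed through parafilm; % kill read at day 2 (0% = none killed).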

Data set [7] concerns Boophilus microplus. Put plainly: Boophilus microplus - injection test. The data set is classed as in vivo. The conditions noted are these: application rate 20 μg/animal; injected into engorged adult female ticks; laying of fertile eggs, after 7 days. Put shortly:
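Read-out is % efficacy from fertile egg laying at 7 days: 100% means no tick laid fertile eggs, 0% means all eggs fertile. Each of 5 engorged adult females received 1 μl of DMSO test solution injected abdominally.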

Data set [8] concerns Rhipicephalus sanguineus. Put plainly: Rhipicephalus sanguineus - in vitro contact tests with adult brown dog ticks. It counts as in vivo. As to the method: Rhipicephalus sanguineus—In Vitro Contact Tests with Adult Brown Dog Ticks
For the coating of the test tubes, 9 mg of active ingredient are first dissolved in 1 ml of acetone p.a. and then diluted to the desired concentration with acetone p.a. 250 μl of the solution are distributed homogeneously on the inner walls and base of a 25 ml test tube by turning and rocking on an orbital shaker (rocking rotation at 30 rpm for 2 h). With 900 ppm active ingredient solution and internal surface 44.7 cm^2, given homogeneous distribution, an area-based dose of 5 μg/cm^2 is achieved.
After the solvent has evaporated off, the tubes are populated with 5-10 adult dog ticks (Rhipicephalus sanguineus), sealed with a perforated plastic lid and incubated in a horizontal position in the dark at room temperature and ambient humidity. After 48 h, efficacy is determined. To this end, the ticks are knocked to the floor of the tube and incubated on a hotplate at 45-50° C. for not more than 5 min. Ticks which remain motionless on the floor or move in such an uncoordinated manner that they are unable to deliberately avoid the heat by climbing upwards are considered to be dead or moribund.
An efficacy of 100% means that all the ticks were dead or moribund. 0% efficacy means that none of the ticks had been harmed.

The mark [9] stands for this setting: application rate 5 μg/cm^2, after 48 h (dead or moribund).

This is an account of results in US9758485B2, “Compounds for controlling arthropods” (priority 2013, dated 2017).

Turning to `Cc1cc(C(F)(C(F)(F)F)C(F)(F)F)cc(C)c1-n1cc(-c2cnc(C)c(C(=O)N(C)C3CC3)c2)cn1` [I-T3-120], the efficacy in data set [1], in data set [2], in data set [3], in data set [4], in data set [6] and in data set [7] was 100% in each case. Also, the log P (commonly a log measure of how a compound divides between an organic and an aqueous phase) in data set [5] is 3.6.
Turning to `CCc1cc(C(F)(C(F)(F)F)C(F)(F)F)ccc1-n1cc(-c2ccc(Cl)c(C(=O)NC3(C#N)CC3)c2)cn1` [I-T3-38], the efficacy turned out to be 100% in data set [1]; 80% in data set [8] (setting [9]); 100% in data set [3]; 100% in data set [6]; 100% in data set [7]. The “logP^a)” value in data set [5] was found to be 4.5.
For `CCc1cc(C(F)(C(F)(F)F)C(F)(F)F)ccc1-n1cc(-c2ccc(Cl)c(C(=O)NC3CC3)c2)cn1` [I-T3-39], the efficacy in data set [3], in data set [4], in data set [6] and in data set [7] was 100% in each case. Moreover, the “logP^a)” value in data set [5] was found to be 4.6.
Turning to `Cc1ncc(-c2cnn(-c3c(Cl)cc(C(F)(C(F)(F)F)C(F)(F)F)cc3Cl)c2)cc1C(=O)N(C)C1CC1` [I-T3-133], the efficacy in data set [1], in data set [2], in data set [3], in data set [4], in data set [6] and in data set [7] was 100% each time. For the same molecule, the “log P” value in data set [5] is 3.7.
Take `CN(C(=O)c1cc(-c2cnn(-c3c(Cl)cc(C(F)(F)F)cc3Cl)c2)cnc1Cl)C1CC1` [I-T3-99]: the efficacy worked out at 90% in data set [1]; 100% in data set [2]; 100% in data set [3]; 90% in data set [4]; 100% in data set [6]; 100% in data set [7]. The “log P” value in data set [5] turned out to be 3.5.
Consider `Cc1cc(C(F)(C(F)(F)F)C(F)(F)F)cc(C(F)(F)F)c1-n1cc(-c2cnc(C)c(C(=O)N(C)C3CC3)c2)cn1` [I-T3-118], for which the efficacy in data set [1], in data set [2], in data set [3], in data set [4], in data set [6] and in data set [7] was 100% each time. For the same molecule, in data set [5], the “log P” value worked out at 3.8.
Turning to `Cc1ncc(-c2cnn(-c3c(Cl)cc(C(F)(C(F)(F)F)C(F)(F)F)cc3C(F)(F)F)c2)cc1C(=O)N(C)C1CC1` [I-T3-130], the efficacy in data set [1], in data set [2], in data set [3], in data set [4], in data set [6] and in data set [7] was 100% in each case. Further, the “log P” value in data set [5] is listed as 3.8.
Consider `COc1ncc(-c2cnn(-c3c(C)cc(C(F)(C(F)(F)F)C(F)(F)F)cc3C)c2)cc1C(=O)NC1(C#N)CC1` [I-T3-141], for which the efficacy in data set [1] is on record as 100%; in data set [8] (application rate 1 μg/cm^2, after 48 h (dead or moribund)) it was 100%; in data set [3] it was 100%; in data set [6], 100%; in data set [7] it was 100%. Moreover, the “log P” value in data set [5] was 4.4.
In the case of `O=C(NC1CC1)c1cc(-c2cnn(-c3c(Cl)cc(C(F)(C(F)(F)F)C(F)(F)F)cc3Cl)c2)cnc1NC1CC1` [I-T3-137], the efficacy in data set [1] worked out at 100%; in data set [2], 100%; in data set [3], 80%; in data set [6] it was 100%; in data set [7] it was 100%. Also, in data set [5], the “log P” value is 3.4.
Turning to `CCN(C(=O)c1cc(-c2cnn(-c3c(Cl)cc(C(F)(F)F)cc3Cl)c2)cnc1Cl)C1CC1` [I-T3-145], the efficacy in data set [1] is on record as 90%; in data set [2], 100%; in data set [3], 100%; in data set [6], 100%; in data set [7], 100%. Moreover, the “log P” value in data set [5] is 3.8.
On to `Cc1cc(C(F)(C(F)(F)F)C(F)(F)F)cc(C)c1-n1cc(-c2cccc(C(=O)NC3CC3)c2)cn1` [I-T3-29], for which the efficacy in data set [1], in data set [2], in data set [3], in data set [6] and in data set [7] was 100% in each case. For the same molecule, the “logP^a)” value in data set [5] was determined as 3.3.
`Cc1cc(C(F)(C(F)(F)F)C(F)(F)F)cc(C)c1-n1cc(-c2cccc(C(=O)NC3(C#N)CC3)c2)cn1` [I-T3-30]: the efficacy in data set [1] is recorded as 90%; in data set [2], 100%; in data set [3], 100%; in data set [6], 100%; in data set [7] it was 100%. Further, in data set [5], the “logP^a)” value was found to be 3.2.
Regarding `CCc1cc(C(F)(C(F)(F)F)C(F)(F)F)cc(C)c1-n1cc(-c2ccc(Cl)c(C(=O)NC3CSC3)c2)cn1` [I-T3-47], the efficacy in data set [8] (setting [9]), in data set [3], in data set [6] and in data set [7] was 100% each time. In addition, the “logP^a)” value in data set [5] is listed as 5.0.
Take `O=C(NC1CC1)c1cc(-c2cnn(-c3ccc(C(F)(C(F)(F)F)C(F)(F)F)cc3Cl)c2)ccc1Cl` [I-T3-31]: the efficacy in data set [1], in data set [2], in data set [3], in data set [6] and in data set [7] was 100% in each case. For the same molecule, the “logP^a)” value in data set [5] is on record as 4.3.
On to `Cc1cc(C(F)(C(F)(F)F)C(F)(F)F)cc(C)c1-n1cc(-c2cnc(C)c(C(=O)N(C)C3(C#N)CC3)c2)cn1` [I-T3-115], for which the efficacy in data set [1], in data set [2], in data set [3], in data set [4], in data set [6] and in data set [7] was 100% each time. For the same molecule, the “log P” value in data set [5] was determined as 3.8.
As to `CN(C(=O)c1cc(-c2cnn(-c3c(Cl)cc(C(F)(C(F)(F)F)C(F)(F)F)cc3C(F)(F)F)c2)cnc1Cl)C1CC1` [I-T3-113], the efficacy in data set [1], in data set [2], in data set [3], in data set [4], in data set [6] and in data set [7] was 100% each time. Also, the “log P” value in data set [5] was determined as 4.0.
In the case of `Cc1cc(C(F)(C(F)(F)F)C(F)(F)F)cc(C)c1-n1cc(-c2cncc(C(=O)NC3CC3)c2)cn1` [I-T3-7], the efficacy in data set [1] is reported as 80%; in data set [2], 100%; in data set [3], 100%; in data set [6], 100%; in data set [7], 100%. Besides, the “logP^a)” value in data set [5] is 3.4.
